Laboratory results from ChEMBL document CHEMBL1201862, “PubChem BioAssay data set” (2004).
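Results reflect a 48-hour exposure of cells in 96-well plates to compound at five concentrations. The concentration for 50% growth inhibition is given as GI50.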 Calls of active or inactive are those of the source. Cut-off read from the data, not from the text of the source: active = GI50 up to about 1.1 µM and inactive = higher.

Assays:
Test in all cases: NCI tumour cell line growth inhibition, 48 h
SF-268 = tested on: SF-268
UO-31 = tested on: UO-31
SF-295 = tested on: SF-295
HOP-62 = tested on: HOP-62
OVCAR-3 = tested on: OVCAR-3
RPMI-8226 = tested on: RPMI-8226
HOP-92 = tested on: HOP-92
MDA-MB-231 = tested on: MDA-MB-231
PC-3 = tested on: PC-3
SW-620 = tested on: SW-620
SK-OV-3 = tested on: SK-OV-3
UACC-62 = tested on: UACC-62
TK-10 = tested on: TK-10
HCT-15 = tested on: HCT-15
SK-MEL-5 = tested on: SK-MEL-5
NCI-H226 = tested on: NCI-H226
SK-MEL-2 = tested on: SK-MEL-2
RXF 393 = tested on: RXF 393
T47D = tested on: T47D
U-251 = tested on: U-251
A498 = tested on: A498
786-0 = tested on: 786-0
HCC 2998 = tested on: HCC 2998
HCT-116 = tested on: HCT-116
COLO 205 = tested on: COLO 205
CCRF-CEM = tested on: CCRF-CEM
NCI-H23 = tested on: NCI-H23
NCI-H460 = tested on: NCI-H460
DU-145 = tested on: DU-145
OVCAR-4 = tested on: OVCAR-4
UACC-257 = tested on: UACC-257
KM12 = tested on: KM12
ACHN = tested on: ACHN
SNB-75 = tested on: SNB-75
SNB-19 = tested on: SNB-19
CAKI-1 = tested on: CAKI-1
K562 = tested on: K562
SK-MEL-28 = tested on: SK-MEL-28
OVCAR-5 = tested on: OVCAR-5
LOX IMVI = tested on: LOX IMVI
MDA-MB-435 = tested on: MDA-MB-435
BT-549 = tested on: BT-549
NCI/ADR-RES = tested on: NCI/ADR-RES
EKVX = tested on: EKVX
M14 = tested on: M14
A549 = tested on: A549
OVCAR-8 = tested on: OVCAR-8
SN12C = tested on: SN12C
SR = tested on: SR
Malme-3M = tested on: Malme-3M
HL-60 = tested on: HL-60
MDA-N = tested on: MDA-N
SF-539 = tested on: SF-539
MOLT-4 = tested on: MOLT-4
MCF7 = tested on: MCF7
IGROV-1 = tested on: IGROV-1
HT-29 = tested on: HT-29
NCI-H522 = tested on: NCI-H522

## COC(=O)C(N)CCCC(N)C(=O)NC(C)C(=O)NC(CCC(=O)NCCCNc1ccc([N+](=O)[O-])c2[nH]c3ccccc3c(=O)c12)C(N)=O (centres undefined)
SF-268
  GI50: 3.25 µM (inactive)
UO-31
  GI50: 3.49 µM (inactive)
SF-295
  GI50: 6.24 µM (inactive)
HOP-62
  GI50: 7.26 µM (inactive)
OVCAR-3
  GI50: 10.8 µM (inactive)
RPMI-8226
  GI50: 3.19 µM (inactive)
HOP-92
  GI50: 11.4 µM (inactive)
MDA-MB-231
  GI50: 10.1 µM (inactive)
PC-3
  GI50: 5.56 µM (inactive)
SW-620
  GI50: 3.7 µM (inactive)
SK-OV-3
  GI50: 11.4 µM (inactive)
UACC-62
  GI50: 2.42 µM (inactive)
TK-10
  GI50: 10 µM (inactive)
HCT-15
  GI50: 3.67 µM
SK-MEL-5
  GI50: 11.7 µM (inactive)
NCI-H226
  GI50: 9.55 µM (inactive)
SK-MEL-2
  GI50: 16.8 µM (inactive)
RXF 393
  GI50: 9.55 µM (inactive)
T47D
  GI50: 11.6 µM (inactive)
U-251
  GI50: 4.66 µM (inactive)
A498
  GI50: 15.1 µM (inactive)
786-0
  GI50: 4.53 µM (inactive)
HCC 2998
  GI50: 6.82 µM (inactive)
HCT-116
  GI50: 2.33 µM (inactive)
COLO 205
  GI50: 3.85 µM (inactive)
CCRF-CEM
  GI50: 3.9 µM (inactive)
NCI-H23
  GI50: 5.68 µM (inactive)
NCI-H460
  GI50: 3.59 µM (inactive)
DU-145
  GI50: 6.56 µM (inactive)
OVCAR-4
  GI50: 6.15 µM (inactive)
UACC-257
  GI50: 8.79 µM (inactive)
KM12
  GI50: 4.91 µM (inactive)
ACHN
  GI50: 3.68 µM (inactive)
SNB-75
  GI50: 9.89 µM (inactive)
SNB-19
  GI50: 4 µM (inactive)
CAKI-1
  GI50: 6.64 µM (inactive)
K562
  GI50: 6.67 µM (inactive)
SK-MEL-28
  GI50: 10.2 µM (inactive)
OVCAR-5
  GI50: 10.4 µM (inactive)
LOX IMVI
  GI50: 3.24 µM (inactive)
MDA-MB-435
  GI50: 5.01 µM (inactive)
BT-549
  GI50: 12.7 µM (inactive)
NCI/ADR-RES
  GI50: 6.07 µM (inactive)
EKVX
  GI50: 7.78 µM (inactive)
M14
  GI50: 5.4 µM (inactive)
A549
  GI50: 3.13 µM (inactive)
OVCAR-8
  GI50: 3.37 µM (inactive)

## CNC(=S)N/N=C(\C)c1cc(OC)c(OC)cc1O
SF-268
  GI50: > 100 µM (inactive)
UO-31
  GI50: > 100 µM (inactive)
HOP-62
  GI50: > 100 µM (inactive)
OVCAR-3
  GI50: > 100 µM (inactive)
RPMI-8226
  GI50: > 100 µM (inactive)
MDA-MB-231
  GI50: > 100 µM (inactive)
SN12C
  GI50: > 100 µM (inactive)
PC-3
  GI50: > 100 µM (inactive)
SW-620
  GI50: > 100 µM (inactive)
SR
  GI50: > 100 µM (inactive)
SK-OV-3
  GI50: > 100 µM (inactive)
Malme-3M
  GI50: > 100 µM (inactive)
UACC-62
  GI50: > 100 µM (inactive)
TK-10
  GI50: > 100 µM (inactive)
HCT-15
  GI50: > 100 µM
SK-MEL-5
  GI50: > 100 µM (inactive)
HL-60
  GI50: 0.0556 µM (active)
SK-MEL-2
  GI50: > 100 µM (inactive)
RXF 393
  GI50: > 100 µM (inactive)
T47D
  GI50: > 100 µM (inactive)
U-251
  GI50: > 100 µM (inactive)
A498
  GI50: > 100 µM (inactive)
786-0
  GI50: > 100 µM (inactive)
HCC 2998
  GI50: > 100 µM (inactive)
HCT-116
  GI50: > 100 µM (inactive)
COLO 205
  GI50: > 100 µM (inactive)
CCRF-CEM
  GI50: > 100 µM (inactive)
NCI-H460
  GI50: > 100 µM (inactive)
DU-145
  GI50: > 100 µM (inactive)
UACC-257
  GI50: > 100 µM (inactive)
KM12
  GI50: > 100 µM (inactive)
ACHN
  GI50: > 100 µM (inactive)
MDA-N
  GI50: > 100 µM (inactive)
SNB-75
  GI50: > 100 µM (inactive)
SNB-19
  GI50: > 100 µM (inactive)
SF-539
  GI50: > 100 µM (inactive)
CAKI-1
  GI50: > 100 µM (inactive)
K562
  GI50: 7.29 µM (inactive)
SK-MEL-28
  GI50: > 100 µM (inactive)
OVCAR-5
  GI50: > 100 µM (inactive)
MOLT-4
  GI50: > 100 µM (inactive)
MDA-MB-435
  GI50: > 100 µM (inactive)
MCF7
  GI50: > 100 µM (inactive)
BT-549
  GI50: > 100 µM (inactive)
NCI/ADR-RES
  GI50: > 100 µM (inactive)
EKVX
  GI50: > 100 µM (inactive)
IGROV-1
  GI50: > 100 µM (inactive)
M14
  GI50: > 100 µM (inactive)
A549
  GI50: > 100 µM (inactive)
HT-29
  GI50: > 100 µM (inactive)
OVCAR-8
  GI50: > 100 µM (inactive)

## Cc1cccc(NC(Nc2cccc(C)c2)=C(C(Cl)=C(Cl)Cl)[N+](=O)[O-])c1
SF-268
  GI50: 13.6 µM (inactive)
UO-31
  GI50: 11.8 µM (inactive)
SF-295
  GI50: 14 µM (inactive)
HOP-62
  GI50: 16.7 µM (inactive)
OVCAR-3
  GI50: 9.31 µM (inactive)
RPMI-8226
  GI50: 8.11 µM (inactive)
MDA-MB-231
  GI50: 3.38 µM (inactive)
SN12C
  GI50: 7.59 µM (inactive)
PC-3
  GI50: 19.9 µM (inactive)
SW-620
  GI50: 14.8 µM (inactive)
SR
  GI50: 3.81 µM (inactive)
SK-OV-3
  GI50: 22.3 µM (inactive)
Malme-3M
  GI50: 14.4 µM (inactive)
UACC-62
  GI50: 13.4 µM (inactive)
TK-10
  GI50: 12.4 µM (inactive)
HCT-15
  GI50: 13.1 µM
SK-MEL-5
  GI50: 5.98 µM (inactive)
NCI-H226
  GI50: 3.35 µM (inactive)
SK-MEL-2
  GI50: 16.4 µM (inactive)
RXF 393
  GI50: 3.94 µM (inactive)
T47D
  GI50: 11.9 µM (inactive)
U-251
  GI50: 12.6 µM (inactive)
A498
  GI50: 36.7 µM (inactive)
786-0
  GI50: 14.7 µM (inactive)
HCC 2998
  GI50: 22.8 µM (inactive)
HCT-116
  GI50: 5.31 µM (inactive)
COLO 205
  GI50: 12.6 µM (inactive)
CCRF-CEM
  GI50: 63.5 µM (inactive)
NCI-H23
  GI50: 9.12 µM (inactive)
NCI-H460
  GI50: 14.2 µM (inactive)
DU-145
  GI50: 18.7 µM (inactive)
OVCAR-4
  GI50: 22.8 µM (inactive)
UACC-257
  GI50: 19.3 µM (inactive)
KM12
  GI50: 19.5 µM (inactive)
ACHN
  GI50: 15.7 µM (inactive)
MDA-N
  GI50: 7.45 µM (inactive)
SNB-75
  GI50: 25.2 µM (inactive)
SNB-19
  GI50: 25.8 µM (inactive)
SF-539
  GI50: 10.1 µM (inactive)
CAKI-1
  GI50: 14.7 µM (inactive)
K562
  GI50: 50.8 µM (inactive)
NCI-H522
  GI50: 6.52 µM (inactive)
SK-MEL-28
  GI50: 17.3 µM (inactive)
OVCAR-5
  GI50: 19.6 µM (inactive)
MOLT-4
  GI50: 2.17 µM (inactive)
LOX IMVI
  GI50: 8.99 µM (inactive)
MDA-MB-435
  GI50: 8.87 µM (inactive)
MCF7
  GI50: 22.3 µM (inactive)
BT-549
  GI50: 11.6 µM (inactive)
NCI/ADR-RES
  GI50: 14 µM (inactive)
EKVX
  GI50: 18.1 µM (inactive)
IGROV-1
  GI50: 2.28 µM (inactive)
M14
  GI50: 16.1 µM (inactive)
A549
  GI50: 22 µM (inactive)
HT-29
  GI50: 15.3 µM (inactive)
OVCAR-8
  GI50: 12.3 µM (inactive)
